Measurements: publication PMC8537386, “The Specificity and Broad Multitarget Properties of Ligands for the Free Fatty Acid Receptors FFA3/GPR41 and FFA2/GPR43 and the Related Hydroxycarboxylic Acid Receptor HCA2/GPR109A” (Pharmaceuticals, 2021)
Where two headings read alike, the source gives them in different places.

Columns and labels:
FFA3/GPR41 = biological target: T1, FFA3/GPR41 (Homo sapiens, UniProt O14843); test: forskolin-stimulated cAMP accumulation assay, Flp-In-293 cells stably expressing FFA3/GPR41; type: cell-based; settings: for Emax / inhibition at 50 µM: Flp-In-293; for Emax / EC50: mean ± SD; for Emax: read-out: FFA3/GPR41 Emax, maximal inhibition of forskolin-stimulated cAMP (converted); for EC50: inhibition of forskolin-stimulated cAMP, absence of propionate, read-out: FFA3/GPR41 EC50; for inhibition at 50 µM: 50 µM compound, NA = not active up to 50 µM; for activity towards FFA3/GPR41 (in words): cAMP assay
T1 construct: host or cells: Flp-In-293
T1 sequence (O14843 1-346): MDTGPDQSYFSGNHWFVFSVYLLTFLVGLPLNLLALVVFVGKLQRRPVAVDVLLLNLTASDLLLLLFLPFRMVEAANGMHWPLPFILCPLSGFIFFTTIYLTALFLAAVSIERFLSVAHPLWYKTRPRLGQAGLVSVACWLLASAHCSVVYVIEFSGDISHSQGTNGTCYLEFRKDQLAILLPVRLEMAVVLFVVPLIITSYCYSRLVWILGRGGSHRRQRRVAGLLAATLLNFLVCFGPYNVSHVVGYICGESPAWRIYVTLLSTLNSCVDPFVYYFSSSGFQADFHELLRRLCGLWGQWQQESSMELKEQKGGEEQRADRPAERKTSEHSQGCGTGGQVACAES
Method: (§1) All of our synthesized compounds were evaluated in forskolin-stimulated cAMP accumulation assay using Flp-In-293 cells stably expressing human FFA2/GPR43, FFA3/GPR41 or HCA2/GPR109A receptors (Table 1, Table 2 and Table 3; Figure 2).
(§2) Flp-In-293 cells (Invitrogen) were used for the generation of stable FFA3/GPR41 and FFA2/GRP43 cell lines using Flp-In System (Invitrogen). Flp-In-293 cells were cultured in Dulbecco’s modified Eagle medium (DMEM) supplemented with 10% fetal bovine serum (FBS), penicillin (100 U/mL), streptomycin (100 µg/mL), and zeocin (100 µg/mL). The cells were co-transfected with pOG44 (Invitrogen) and pcDNA5/FRT-FFA3 or pcDNA5/FRT-FFA2 using TurboFect (Thermo Fisher Scientific), and stable cell lines were generated according to the manufacturer’s protocol (Invitrogen). After transfection, the cells were cultured under selection pressure due to the presence of hygromycin B (100 µg/mL) in DMEM supplemented with 10% FBS, penicillin, and streptomycin.
(§3) For cAMP assay, the cells were distributed into a 384-well white microplate at a density of 12,000 cells per well and stimulated with the indicated compounds in the presence of 3 μM forskolin for 30 min. […] The cells and the compounds were diluted in 1X phosphate-buffered saline (PBS) supplemented with 0.5 mM of 3-isobutyl-1-methylxanthine. The intracellular cAMP levels were measured using a Lance cAMP kit according to the manufacturer’s instructions. The plates were read on a PerkinElmer Victor 3V multilabel plate reader. The cAMP was quantitated in each sample by comparison to a calibration curve of known cAMP quantities provided in the kit.

HCA2/GPR109A = biological target: T2, HCA2/GPR109A (Homo sapiens, UniProt Q8TDS4); test: forskolin-stimulated cAMP accumulation assay, Flp-In-293 cells stably expressing HCA2/GPR109A; type: cell-based; settings: for inhibition at 50 µM: 50 µM compound, NA = not active up to 50 µM; for activity towards HCA2/GPR109A (in words): cAMP assay
T2 construct: expressed in transfected cells; host or cells: Flp-In-293
T2 sequence (Q8TDS4 whole entry): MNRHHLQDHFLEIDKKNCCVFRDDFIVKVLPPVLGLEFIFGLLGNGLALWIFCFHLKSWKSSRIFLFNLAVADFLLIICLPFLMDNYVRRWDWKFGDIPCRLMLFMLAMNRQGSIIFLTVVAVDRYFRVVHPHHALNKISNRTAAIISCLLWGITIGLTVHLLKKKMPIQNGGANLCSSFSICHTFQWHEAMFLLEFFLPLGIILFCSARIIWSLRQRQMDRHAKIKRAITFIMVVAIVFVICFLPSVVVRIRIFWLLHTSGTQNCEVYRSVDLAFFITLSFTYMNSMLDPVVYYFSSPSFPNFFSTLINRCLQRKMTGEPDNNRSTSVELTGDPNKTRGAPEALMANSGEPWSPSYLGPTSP
Method: as §1
Flp-In-293 cells stably expressing human HCA2/GPR109A receptor (laboratory collection) were grown in DMEM medium supplemented with 10% FBS, penicillin, streptomycin, and hygromycin B (100 µg/mL). All cells were cultured at 37 °C in a humidified incubator containing 5% CO2.
as §3

FFA2/GPR43 = biological target: T3, FFA2/GPR43 (Homo sapiens, UniProt O15552); test: forskolin-stimulated cAMP accumulation assay, Flp-In-293 cells stably expressing FFA2/GPR43; type: cell-based; settings: for inhibition at 50 µM / Emax: Flp-In-293; for inhibition at 50 µM: 50 µM compound, NA = not active up to 50 µM; for activity towards FFA2/GPR43 (in words): cAMP assay; for Emax / EC50: mean ± SD; for Emax: read-out: FFA2/GPR43 Emax, maximal inhibition of forskolin-stimulated cAMP (converted); for EC50: inhibition of forskolin-stimulated cAMP
T3 construct: host or cells: Flp-In-293
T3 sequence (O15552 1-330): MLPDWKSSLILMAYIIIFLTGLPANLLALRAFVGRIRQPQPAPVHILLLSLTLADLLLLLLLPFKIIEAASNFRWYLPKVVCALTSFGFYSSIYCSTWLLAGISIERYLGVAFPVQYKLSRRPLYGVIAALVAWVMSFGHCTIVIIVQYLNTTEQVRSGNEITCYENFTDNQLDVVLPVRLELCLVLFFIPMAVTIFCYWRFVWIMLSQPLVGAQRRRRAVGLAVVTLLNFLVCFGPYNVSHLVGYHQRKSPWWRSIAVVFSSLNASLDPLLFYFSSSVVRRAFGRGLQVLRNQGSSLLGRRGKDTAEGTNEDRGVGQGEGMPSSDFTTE
Method: as §1, §2, §3

[1] = cyclic voltammetry, electrooxidation potential; type: physicochemical; settings: vs. Ag/Ag+; acetonitrile, glassy carbon electrode
Method: Cyclic voltammetry experiments were carried out using a PARSTAT 2273 electrochemical system. A stationary glassy carbon disk electrode (d = 0.8 mm) served as the working electrode, while the counter electrode was a Pt wire. The oxidation potentials were measured relative to an Ag/Ag^+ reference electrode. Acetonitrile was dried over P2O5 and distilled; the distillate was stored over CaH2 and redistilled immediately prior to use. Recrystallized tetrabutylammonium tetrafluoroborate (TBATFB) was used as a supporting electrolyte at 0.1 M concentration.

[2] = HCA2, mean ± SD, read-out: HCA2/GPR109A Emax, maximal inhibition of forskolin-stimulated cAMP (converted)
[3] = inhibition of forskolin-stimulated cAMP, mean ± SD, read-out: HCA2/GPR109A EC50

Row | Structure (SMILES) | Emax (FFA3/GPR41) [%] | EC50 (FFA3/GPR41) [µM] | inhibition at 50 µM (FFA3/GPR41) [%] | inhibition at 50 µM (FFA2/GPR43) [%] | Emax (HCA2/GPR109A; [2]) [%] | EC50 (HCA2/GPR109A; [3]) [µM] | also measured
1 | CC1=C(C(=O)Nc2ccc(Cl)cc2Cl)C(c2cccs2)C2=C(CCCC2=O)N1 (centres unmarked) [1-6, N-(2,4-Dichlorophenyl)-2-methyl-5-oxo-4-(thiophen-2-yl)-1,4,5,6,7,8-hexahydroquinoline-3-carboxamide] | 82 | 1.4 ± 0.17 | – | – | – | – | –
2 | CCN1CC2=C(C1=O)C(c1ccc(-c3ccccc3)cc1)C1=C(CC(C)(C)CC1=O)N2 (centres unmarked) [1-12] | – | – | 16 ± 8 | 21 ± 4 | – | – | inhibition at 50 µM (HCA2/GPR109A; HCA2): 16 ± 4%; activity towards HCA2/GPR109A (in words) (HCA2/GPR109A): low activity; activity towards FFA3/GPR41 (in words) (FFA3/GPR41): low activity; activity towards FFA2/GPR43 (in words) (FFA2/GPR43): low activity
3 | O=c1cc(CCCCCl)c2c(=O)[nH]c(=S)[nH]c2o1 [2-6, 5-(4-Chlorobutyl)-2-thioxo-2,3-dihydro-1H-pyrano[2,3-d]pyrimidine-4,7-dione] | 89 | 0.34 ± 0.05 | – | – | 94 | 0.35 ± 0.02 | Emax (FFA2/GPR43): 83%; EC50 (FFA2/GPR43): 2.5 ± 0.4 µM
4 | NC(=O)CSc1nc(=O)c2c(CCCCCl)cc(=O)oc2[nH]1 [3-5, 2-[5-(4-Chlorobutyl)-4,7-dioxo-1,7-dihydro-4H-pyrano[2,3-d]pyrimidin-2-ylsulfanyl]-acetamide] | – | – | 20 ± 4 | 42 ± 2 | 87 | 62 ± 10 | El.ox. pot. (single value) [1]: 1.93 V
5 | CCOC(=O)CSc1nc(=O)c2c(CCCCCl)cc(=O)oc2[nH]1 [3-2] | 91 | 1.7 ± 0.2 | – | 64 ± 2 | 89 | 43 ± 8 | –
6 | CC(=O)OCCN1C2=C(C(=O)CC(C)(C)C2)C(c2ccccc2)C2=C1CC(C)(C)CC2=O [1-13] | – | – | 30 ± 9 | 32 ± 7 | – | – | inhibition at 50 µM (HCA2/GPR109A; HCA2): 26 ± 8%
7 | CCOC(=O)C1=C(C(=O)O)NC2=C(C(=O)CC(C)(C)C2)C1c1ccc(-c2ccccc2)cc1 (centres unmarked) [1-14] | – | – | – | – | – | – | activity towards HCA2/GPR109A (in words) (HCA2/GPR109A): completely lacked activity; activity towards FFA3/GPR41 (in words) (FFA3/GPR41): completely lacked activity; activity towards FFA2/GPR43 (in words) (FFA2/GPR43): completely lacked activity
8 | CCc1cc(=O)oc2[nH]c(=S)[nH]c(=O)c12 [2-2] | – | 0.37 ± 0.08 | – | – | – | – | EC50 (HCA2/GPR109A): 0.49 ± 0.06 µM; Emax (HCA2/GPR109A; HCA2, read-out: HCA2/GPR109A Emax, maximal inhibition of forskolin-stimulated cAMP): 99%; Emax (FFA2/GPR43): 91%; EC50 (FFA2/GPR43): 0.92 ± 0.04 µM
9 | CCOC(=O)C(OC(=O)C1=C(C)NC2=C(C(=O)CCC2)C1c1cccs1)c1ccccc1 (centres unmarked) [1-10, (2-Ethoxy-2-oxo-1-phenylethyl)2-methyl-5-oxo-4-(2-thienyl)-4,6,7,8-tetrahydro-1H-quinoline-3-carboxylate] | – | – | 49 ± 15 | 31 ± 4 | – | – | inhibition at 50 µM (HCA2/GPR109A; HCA2): 60 ± 5%; El.ox. pot. (first, lower potential) [1]: 1.18 V
10 | CCCCc1cc(=O)oc2[nH]c(=S)[nH]c(=O)c12 [2-4, 5-Butyl-2-thioxo-2,3-dihydro-1H-pyrano[2,3-d]pyrimidine-4,7-dione] | 95 | 0.19 ± 0.03 | – | – | 97 | 0.55 ± 0.04 | Emax (FFA2/GPR43): 93%; EC50 (FFA2/GPR43): 0.74 ± 0.08 µM
11 | CCCCc1cc(=O)oc2[nH]c(=O)[nH]c(=O)c12 [2-5] | – | – | 28 ± 4 | – | 93 | 0.051 ± 0.007 | El.ox. pot. (single value) [1]: 1.94 V
12 | CCOC(=O)COC(=O)C1=C(C)NC2=C(C(=O)CCC2)C1c1cccs1 (centres unmarked) [1-9] | 91 | 1.9 ± 0.4 | – | 40 ± 2 | – | – | El.ox. pot. (first, lower potential) [1]: 1.18 V
13 | CC1=C(C(=O)N2CCOCC2)C(c2cccs2)C2=C(CCCC2=O)N1 (centres unmarked) [1-8, 2-Methyl-3-(morpholine-4-carbonyl)-4-(thiophen-2-yl)-4,6,7,8-tetrahydro-1H-quinolin-5-one] | – | – | 28 ± 2 | – | – | – | activity towards HCA2/GPR109A (in words) (HCA2/GPR109A): lacked activity; activity towards FFA2/GPR43 (in words) (FFA2/GPR43): lacked activity
14 | CC1=C(C(=O)Nc2ccccn2)C(c2cccs2)C2=C(CCCC2=O)N1 (centres unmarked) [1-7, 2-Methyl-5-oxo-N-(pyridin-2-yl)-4-(thiophen-2-yl)-1,4,5,6,7,8-hexahydroquinoline-3-carboxamide] | – | – | – | 49 ± 8 | – | – | activity towards FFA3/GPR41 (in words) (FFA3/GPR41): lost; activity towards FFA2/GPR43 (in words) (FFA2/GPR43): showed activity
15 | O=C(CSc1nc(=O)c2c(CCCCCl)cc(=O)oc2[nH]1)Nc1ccccc1C(=O)O [3-7, 2-2-[5-(4-Chlorobutyl)-4,7-dioxo-1,7-dihydro-4H-pyrano[2,3-d]pyrimidin-2-ylsulfanyl]-acetamino-benzoic acid] | 87 | 4.6 ± 0.6 | – | 52 ± 10 | – | – | inhibition at 50 µM (HCA2/GPR109A; HCA2): 30 ± 6%
16 | CCCc1cc(=O)oc2[nH]c(=S)[nH]c(=O)c12 [2-3, 5-Propyl-2-thioxo-2,3-dihydro-1H-pyrano[2,3-d]pyrimidine-4,7-dionee] | – | – | 38 ± 2 | 29 ± 3 | 86 | 0.87 ± 0.11 | –
17 | CC1=C(C(=O)Nc2ccc(Cl)cc2)C(c2cccs2)C2=C(CCCC2=O)N1 (centres unmarked) [1-5, N-(4-Chlorophenyl)-2-methyl-5-oxo-4-(thiophen-2-yl)-1,4,5,6,7,8-hexahydroquinoline-3-carboxamide] | – | – | 45 ± 9 | – | – | – | –
18 | CCCCc1cc(=O)oc2[nH]c(SCC(=O)OCC)nc(=O)c12 [3-1, Ethyl 5-butyl-4,7-dioxo-1,7-dihydro-4H-(pyrano[2,3-d]pyrimidin-2-ylsulfanyl)acetate] | 95 | 1.6 ± 0.5 | – | 65 ± 1 | 93 | 75 ± 11 | El.ox. pot. (single value) [1]: 1.97 V
19 | CCCNCC1=C(C(=O)OCC)C(c2ccc(-c3ccccc3)cc2)C2=C(CC(C)(C)CC2=O)N1 (centres unmarked) [1-11] | – | – | 51 ± 6 | 55 ± 6 | – | – | inhibition at 50 µM (HCA2/GPR109A; HCA2): 52 ± 5%
20 | Cc1cc(=O)oc2[nH]c(=S)[nH]c(=O)c12 [2-1] | 89 | 4.8 ± 0.36 | – | – | 96 | 7.1 ± 1.31 | Emax (FFA2/GPR43): 87%; EC50 (FFA2/GPR43): 19 ± 6.8 µM
